A short description of data set [1]: Pharmacokinetics of the enantiomers of idazoxan in healthy male subjects. The following applies: for AUC0-∞ of R(−) idazoxan / AUC0-∞ of S(+) idazoxan / CLtot/F of R(−) idazoxan / CLtot/F of S(+) idazoxan / Cmax of R(−) idazoxan / Cmax of S(+) idazoxan / Tmax of R(−) idazoxan / Tmax of S(+) idazoxan / t1/2 of R(−) idazoxan / t1/2 of S(+) idazoxan: single administration of the racemate (20 mg) or of the enantiomer alone (10 mg). As to the method: Young healthy male subjects were allocated at random to receive a single dose of each of the following substances on one occasion: 20 mg of idazoxan racemate (polymorph of form I); 10 mg of the R(−) enantiomer; 10 mg of the S(+) enantiomer.

A short description of data set [2]: Solubility in various solvents.
For data set [3] the following is noted: ICH criteria.
The subject of data set [4] is hypothermia induced by guanabenz. Briefly: Inhibition of the hypothermia induced by guanabenz. Type of data set: in vivo, mice. The note with it: initially, without preincubation. As to the method:
(§1) The binding values of the α2-adrenoreceptors for the two enantiomers were evaluated using rat cortical tissue. In addition, the biological activity was evaluated by the inhibition of the hypothermia induced by guanabenz in mice.

Data set [5] has as its system α2-adrenoreceptors. Briefly: α2-adrenoreceptor binding in rat cortical tissue. The note with it: initially, without preincubation. How it is done: as §1

4 compounds from patent US8476307B2, “Pharmaceutical composition based on idazoxan, salts, hydrates or polymorphs thereof” (Pierre Fabre Medicament, priority 2003, dated 2013) can be followed below.

Where a name gives a salt, the structure may show the parent alone. Read-outs that look alike come from different tables or passages of the source.

The compound `Cl.c1ccc2c(c1)OCC(C1=NCCN1)O2` (stereo not drawn) [Form I] gave a Long-term stability (25° C./60% RH, listed as 500) of 24 months; a Long-term stability (25° C./60% RH, listed as 501) of 24 months; a Long-term stability (25° C./60% RH, listed as 503) of 9 months; a Long-term stability (25° C./60% RH, listed as 504) of 9 months; a Long-term stability (25° C./60% RH, listed as OP2) of 24 months; a Long-term stability (30° C./70% RH, listed as 500) of 24 months. The same compound registered a Long-term stability (30° C./70% RH, listed as 501) of 24 months; a Long-term stability (30° C./70% RH, listed as 503) of 6 months; a Long-term stability (30° C./70% RH, listed as 504) of 6 months; a Long-term stability (30° C./70% RH, listed as OP2) of 24 months; a Long-term stability (40° C./75% RH, listed as 500) of 6 months; a Long-term stability (40° C./75% RH, listed as 501) of 6 months. Moreover, the Long-term stability is, setting by setting: (40° C./75% RH, listed as 503) 6 months; (40° C./75% RH, listed as 504) 6 months; (40° C./75% RH, listed as OP2) 9 months. Further, the “AUC0-∞ of R(−) idazoxan” value in data set [1] was found to be 58 ± 23 ng·h/mL. Moreover, the “AUC0-∞ of S(+) idazoxan” value in data set [1] came to 44 ± 21 ng·h/mL. In addition, the “CLtot/F of R(−) idazoxan” value in data set [1] was 170 ± 76 L/h. In data set [1], the “CLtot/F of S(+) idazoxan” value worked out at 245 ± 136 L/h. For the same compound, in data set [1], the “Cmax of R(−) idazoxan” value was 11.9 ± 4.6 ng/mL. Moreover, the “Cmax of S(+) idazoxan” value in data set [1] amounted to 8.3 ± 3.6 ng/mL. For the same compound, the “Tmax of R(−) idazoxan” value in data set [1] was 2.1 ± 0.7 h. In data set [1], the “Tmax of S(+) idazoxan” value turned out to be 2.1 ± 0.7 h. The “t1/2 of R(−) idazoxan” value in data set [1] was 3.3 ± 0.4 h. Further, the “t1/2 of S(+) idazoxan” value in data set [1] was 3.3 ± 0.4 h. For the same compound, the “solubility in water” value in data set [2] (batches of the form I) was “Freely soluble”. Besides, the “solubility in ethanol” value in data set [2] (batches of the form I, listed as 503) is recorded as “Soluble”. In addition, the photostability result in data set [3] is “no decomposition”.

For the compound `c1ccc2c(c1)OCC(C1=NCCN1)O2` (stereo not drawn) [Idazoxan hydrochloride, 2-(2-imidazolinyl)-1,4-benzodioxane hydrochloride], in data set [2] (powder), the solubility in ethanol entry is “soluble to fairly soluble”, the solubility in methanol result was “readily soluble” and the solubility in water entry is recorded as “readily soluble”.

Turning to `c1ccc2c(c1)OC[C@@H](C1=NCCN1)O2` [R(−) Idazoxan], in data set [1], the “AUC0-∞ of R(−) idazoxan” value turned out to be 43 ± 19 ng·h/mL, the “AUC0-∞ of S(+) idazoxan” value was 14 ± 8 ng·h/mL, the “CLtot/F of R(−) idazoxan” value came out at 230 ± 92 L/h and the “Cmax of R(−) idazoxan” value is 10.2 ± 3.9 ng/mL. In data set [1], the “Cmax of S(+) idazoxan” value is 1.6 ± 1.0 ng/mL, the “Tmax of R(−) idazoxan” value was 2.5 ± 0.5 h, the “Tmax of S(+) idazoxan” value stood at 4.0 ± 0 h and the “t1/2 of R(−) idazoxan” value was found to be 3.1 ± 0.6 h. The “t1/2 of S(+) idazoxan” value in data set [1] was determined as 4.1 ± 0.5 h.

For `c1ccc2c(c1)OC[C@H](C1=NCCN1)O2` [S(+)Idazoxan], the “effectiveness in the antagonism of the hypothermia relative to the R(−) form” value in data set [4] came to 15 times. In addition, in data set [1] (human, in vivo), the “apparent clearance relative to the R(−) enantiomer” value is recorded as “approximately 1.5 times” and the “distribution relative to the R(−) enantiomer” value is reported as “approximately 1.5 times”. The “t1/2 for conversion of S(+) to R(−)” value in data set [1] (in vivo) was 4 h. In addition, in data set [1], the “AUC0-∞ of R(−) idazoxan” value was 11 ± 6 ng·h/mL, the “AUC0-∞ of S(+) idazoxan” value is 27 ± 13 ng·h/mL, the “CLtot/F of S(+) idazoxan” value stood at 397 ± 205 L/h and the “Cmax of R(−) idazoxan” value was 1.3 ± 0.7 ng/mL. In addition, in data set [1], the “Cmax of S(+) idazoxan” value turned out to be 7.2 ± 5.1 ng/mL, the “Tmax of R(−) idazoxan” value is 3.7 ± 0.5 h, the “Tmax of S(+) idazoxan” value was 2.1 ± 0.8 h and the “t1/2 of R(−) idazoxan” value is 3.7 ± 0.4 h. Besides, the “t1/2 of S(+) idazoxan” value in data set [1] amounted to 7.8 ± 0.5 h. For the same compound, in data set [5], the “binding affinity relative to the R(−) form” value was “ten times greater”.
